Laboratory results: patent US9751861B2, “N1-(3,3,3-trifluoro-2-hydroxo-2-methylpropionyl)-piperidine derivatives as inhibitors of pyruvate dehydrogenase kinase” (MERCK PATENT GMBH, priority 2013, dated 2017)
pIC50, pKd: −log10 of the molar value.

Tests used:
[1] = biological target: T1, PDHK2 (Homo sapiens, UniProt Q15119); test: Biochemical activity testing of PDHK2: PDC inactivation assay; conditions: human rec PDHK2, PDC from porcine heart, ATP 5 μM; read-out: IC50 PDHK2 (enzyme assay)
T1 construct: purchased Carna Bioscience
How it was run: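 Human recombinant PDHK2 (137 nM final) preincubated 30 min at RT with porcine heart PDC (20 mU/ml) and compound in pH 7.0 phosphate buffer, then phosphorylated with 5 μM ATP for 30 min at 37 °C. Residual PDC activity read as NADH fluorescence increase (Ex 340/Em 450) over 45 min; inhibitor-free reaction as full value, 3 mM DCA as zero, IC50 derived.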

[2] = biological target: T2, human PDHK2 (12-407) (Homo sapiens, UniProt Q15119); test: Isothermal titration calorimetry (ITC) binding; conditions: 30° C., pH 7.5
T2 construct: The human PDHK2 (12-407) was produced in E. coli; His-tag (cleaved yes); made in house; host or cells: E. coli
How it was run: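 Untagged PDHK2 (12-407) from E. coli at 50 μM titrated into 5 μM compound at 30° C in pH 7.5 HEPES/KCl/MgCl2/phosphate buffer, ≤1% DMSO. One-site fit gave KA, ΔH^obs and N after heat-of-dilution correction; protein concentration referenced to a standard inhibitor and compound concentration adjusted to 1:1 stoichiometry.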

[3] = tested on: PDH-Elalpha (pSer300); test: Cellular immunofluorescence assay in HEK293T cells; type: cell-based; conditions: Homo sapiens, HEK-293T, 5 hours incubation, anti-PDH-E1alpha pSer300 immunofluorescence, read-out: IC50 (cell data)
Description: Cellular Assay for Determination of Compound Activities
Compound activities were determined in a cellular immunofluorescence assay. Human HEK293T cells were seeded into black 384-well plates with clear bottom and grown overnight.
Next day, test compounds were added to the wells and the plates incubated for 5 hours. Following this, cells were fixed with formaldehyde, permeabilised and blocked. The primary antibody, Anti-PDH-Elalpha (pSer300), AP1064 (Merck Millipore) was added and incubated overnight in the plate wells. Next, cells were washed and the seconday antibody, Alexa Fluor 488, goat anti-rabbit ab (A-11008, Invitrogen) was added together with Hoechst 33258 (H3569, Invitrogen) and incubated for 1 hour in the plate wells. Finally, cells were washed and the plates were measured on the laser scanning cytometer acumen hci (TTpLabtech).
The raw data were normalized against a pharmacological inhibitor control and dose response curves were generated by plotting the percent effect values using the software package Genedata screener (Genedata).

| pIC50 [1] | pKd [2] | pIC50 [3] | SMILES |
| --- | --- | --- | --- |
| > 6.52 | > 6.52 | 5.52 to 6.52 | C[C@@H]1CN(C(=O)[C@@](C)(O)C(F)(F)F)CC[C@@H]1c1ccnn1[C@H]1CC[C@@H](O)CC1 [Compound A120, (R)-3,3,3-Trifluoro-2-hydroxy-1-{(3S,4S)-4-[2-(4-hydroxy-cyclohexyl)-2H-pyrazol-3-yl]-3-methyl-piperidin-1-yl}-2-methyl-propan-1-one] |
| 5.52 to 6.52 | > 6.52 | 5.52 to 6.52 | Cc1ccccc1-n1nccc1C1CCN(C(=O)[C@@](C)(O)C(F)(F)F)CC1 [Compound A5, (R)-3,3,3-Trifluoro-2-hydroxy-2-methyl-1-[4-(2-o-tolyl-2H-pyrazol-3-yl)-piperidin-1-yl]-propan-1-one] |
| 5.52 to 6.52 | > 6.52 | 4.30 to 5.52 | C[C@@](O)(C(=O)N1CCC(c2ccnn2[C@H]2CC[C@H](O)CC2)CC1)C(F)(F)F [Compound A94, (R)-3,3,3-Trifluoro-2-hydroxy-1-[4-[2-(4-hydroxycyclohexyl)-2H-pyrazol-3-yl]-1-piperidyl]-2-methyl-propan-1-one] |
| 4.30 to 5.52 | 5.52 to 6.52 | 4.30 to 5.52 | C[C@@](O)(C(=O)N1CCC(c2ccnn2CC(F)(F)F)CC1)C(F)(F)F [Compound A77, (R)-3,3,3-Trifluoro-2-hydroxy-2-methyl-1-{4-[2-(2,2,2-trifluoro-ethyl)-2H-pyrazol-3-yl]-piperidin-1-yl}-propan-1-one] |
| 5.52 to 6.52 | > 6.52 | 4.30 to 5.52 | C[C@@](O)(C(=O)N1CCC(c2ccnn2-c2ccc(C#N)cc2F)CC1)C(F)(F)F [Compound A91, 3-Fluoro-4-[5-[1-[(R)-3,3,3-trifuoro-2-hydroxy-2-methyl-propanoyl]-4-piperidyl]-2H-pyrazol-1-yl]benzonitrile] |
| > 6.52 | > 6.52 | > 6.52 | COc1ccc(-n2nccc2[C@H]2CCN(C(=O)[C@@](C)(O)C(F)(F)F)C[C@H]2C)cc1 [Compound A110, (R)-3,3,3-Trifluoro-1-{(3S,4S)-4-[2-(4-methoxy-phenyl)-2H-pyrazol-3-yl]-3-methyl-piperidin-1-yl}-2-hydroxy-2-methyl-propan-1-one] |
| > 6.52 | > 6.52 | 5.52 to 6.52 | C[C@@](O)(C(=O)N1CCC(c2cncn2-c2ccc(Cl)cc2F)CC1)C(F)(F)F [Compound A126, (R)-1-{4-[3-(4-Chloro-2-fluoro-phenyl)-3H-imidazol-4-yl]-piperidin-1-yl}-3,3,3-trifluoro-2-hydroxy-2-methyl-propan-1-one] |
| > 6.52 | > 6.52 | 5.52 to 6.52 | C[C@@](O)(C(=O)N1CCC(n2cncc2-c2ccc(Cl)cc2)CC1)C(F)(F)F [Compound A64, (2R)-1-[4-[5-(4-chlorophenyl)imidazol-1-yl]-1-piperidyl]-3,3,3-trifluoro-2-hydroxy-2-methyl-propan-1-one] |
| 5.52 to 6.52 | > 6.52 | 4.30 to 5.52 | C[C@@](O)(C(=O)N1CCC(c2ccnn2-c2ccc(C(F)(F)F)nc2)CC1)C(F)(F)F [Compound A80, (R)-3,3,3-Trifluoro-2-hydroxy-2-methyl-1-[4-[2-[6-(trifluoromethyl)-3-pyridyl]-2H-pyrazol-3-yl]-1-piperidyl]propan-1-one] |
| 5.52 to 6.52 | > 6.52 | 4.30 to 5.52 | Cn1cc(-n2nccc2C2CCN(C(=O)[C@@](C)(O)C(F)(F)F)CC2)cn1 [Compound A85, (R)-3,3,3-Trifluoro-2-hydroxy-2-methyl-1-[4-[2-(1-methylpyrazol-4-yl)-2H-pyrazol-3-yl]-1-piperidyl]propan-1-one] |
| > 6.52 | > 6.52 | 5.52 to 6.52 | C[C@@](O)(C(=O)N1CCC(c2ccnn2-c2ccc(Cl)cc2F)CC1)C(F)(F)F [Compound A23, (R)-1-{4-[2-(4-Chloro-2-fluoro-phenyl)-2H-pyrazol-3-yl]-piperidin-1-yl}-3,3,3-trifluoro-2-hydroxy-2-methyl-propan-1-one] |
